Assays:
Assay type in all cases: cell-based, human
AR-V7 [1] = assay: CELIGO microscope observation of AR-V7 expression; details: 22Rv1 cells, 72 hours; enzalutamide 30.0 μM, SB202190 5.0 μM, LY2228820 2.5 μM; control 30.0%
Description: The expression of AR-V7 was observed by the CELIGO microscope in 22Rv1 cells after 72 hours of culture.

AR-V7 [2] = assay: western blot of AR and AR-V7 expression in 22Rv1 cells; details: 22Rv1, 72 hours; abiraterone 7.5 μM, enzalutamide 7.5 μM, SB202190 (504)
Description: Western blot analysis was performed, detecting the wild-type form of AR and the AR-V7 form as well (FIG. 7). In this way the inventors tested the involvement of the p38 inhibitor in abiraterone and enzalutamide resistance, the AR-V7.

p38 (MAPK14) = assay: p38 activation, western blot with anti-phospho-p38 antibody; details: 22Rv1 and LNCaP prostate cancer cells, 24 hours
Description: FIG. 1: Abiraterone induces p38 activation. Prostate cancer cells LNCaP (Androgen Receptor expressing cells) were treated with abiraterone (30 μM). Prostate cancer cells 22Rv1 (Androgen Receptor and AR-V7 expressing cells) were treated with 0.1, 1.0, 10.0 and 30.0 μM abiraterone during 24 hours. Protein were extracted and subjected to western blot analysis using anti-phospho-p38, anti-p38 and anti-tubulin antibodies. (Example 1)
[…]. A: LNCaP human prostate cells (Androgen Receptor expressing cells) were treated by enzalutamide (35.0 μM) during 24 h00. Phosphorylation p38 was assessed. Tubuline and non-phosphorylated proteins were stained as a loading control. B: same experiment with the Androgen Receptor and AR-V7 expressing 22Rv1 human prostate cancer cells (Example 1).

Row | SMILES | % of cells with ARv7 (AR-V7 [1]) [%] | AR-V7 expression (AR-V7 [2]) | activation of MAPK p38 (phosphorylated form of p38) (p38 (MAPK14))
1 | CC(C)(C)Cn1c(N)nc2ccc(-c3[nH]c(C(C)(C)C)nc3-c3ccc(F)cc3)nc21 [LY2228820] | 34.0 |  | 
2 | Oc1ccc(-c2nc(-c3ccncc3)c(-c3ccc(F)cc3)[nH]2)cc1 [SB202190] | 28.0 | inhibits AR-V7 expression | 
3 | CNC(=O)c1ccc(N2C(=S)N(c3ccc(C#N)c(C(F)(F)F)c3)C(=O)C2(C)C)cc1F [enzalutamide] |  |  | activates the MAPK p38

Source: patent US11478486B2, “Association of actives for treating prostate cancer” (priority 2017, dated 2022)
